Reference: ChEMBL document CHEMBL1201861, “Genomics of Drug Sensitity in Cancer screening data, Wellcome Trust Sanger Institute”

What was measured:
Experiment in all cases: cells
COLO-792 = assay type: functional, cell-based, Homo sapiens; details: Homo sapiens, COLO-792
Description: SANGER: Inhibition of human COLO-792 cell growth in a cell viability assay.

COLO-829 = assay type: functional, cell-based, Homo sapiens; details: Homo sapiens, COLO-829
Description: SANGER: Inhibition of human COLO-829 cell growth in a cell viability assay.

DOHH-2 = assay type: functional, cell-based; details: Homo sapiens
Description: SANGER: Inhibition of human DOHH-2 cell growth in a cell viability assay.

DSH1 = assay type: functional, cell-based, Homo sapiens; details: Homo sapiens, DSH1
Description: SANGER: Inhibition of human DSH1 cell growth in a cell viability assay.

ES7 = assay type: functional, cell-based, Homo sapiens; details: Homo sapiens, ES7
Description: SANGER: Inhibition of human ES7 cell growth in a cell viability assay.

EOL1 = assay type: functional, cell-based; details: Homo sapiens
Description: SANGER: Inhibition of human EoL-1-cell cell growth in a cell viability assay.

GI-1 = assay type: functional, cell-based, Homo sapiens; details: Homo sapiens, GI-1
Description: SANGER: Inhibition of human GI-1 cell growth in a cell viability assay.

HCC38 = assay type: functional, cell-based, Homo sapiens; details: Homo sapiens, HCC38
Description: SANGER: Inhibition of human HCC38 cell growth in a cell viability assay.

HCT-116 = assay type: functional, cell-based, Homo sapiens; details: Homo sapiens, HCT-116
Description: SANGER: Inhibition of human HCT-116 cell growth in a cell viability assay.

HGC-27 = assay type: functional, cell-based, Homo sapiens; details: Homo sapiens, HGC-27
Description: SANGER: Inhibition of human HGC-27 cell growth in a cell viability assay.

HN = assay type: functional, cell-based, Homo sapiens; details: Homo sapiens, HN
Description: SANGER: Inhibition of human HN cell growth in a cell viability assay.

HO-1-N-1 = assay type: functional, cell-based, Homo sapiens; details: Homo sapiens, HO-1-N-1
Description: SANGER: Inhibition of human HO-1-N-1 cell growth in a cell viability assay.

HuTu80 = assay type: functional, cell-based, Homo sapiens, HUTU-80; details: Homo sapiens, HuTu80
Description: SANGER: Inhibition of human HUTU-80 cell growth in a cell viability assay.

Huh-7 = assay type: functional, cell-based, Homo sapiens; details: Homo sapiens, Huh-7
Description: SANGER: Inhibition of human HuH-7 cell growth in a cell viability assay.

K5 = assay type: functional, cell-based, Homo sapiens; details: Homo sapiens, K5
KINGS-1 = assay type: functional, cell-based, Homo sapiens; details: Homo sapiens, KINGS-1
Description: SANGER: Inhibition of human KINGS-1 cell growth in a cell viability assay.

KM-H2 = assay type: functional, cell-based; details: Homo sapiens
Description: SANGER: Inhibition of human KM-H2 cell growth in a cell viability assay.

KU-19-19 = assay type: functional, cell-based, Homo sapiens; details: Homo sapiens, KU-19-19
Description: SANGER: Inhibition of human KU-19-19 cell growth in a cell viability assay.

KYSE-410 = assay type: functional, cell-based, Homo sapiens; details: Homo sapiens, KYSE-410
Description: SANGER: Inhibition of human KYSE-410 cell growth in a cell viability assay.

LB1047-RCC = assay type: functional, cell-based, Homo sapiens; details: Homo sapiens, LB1047-RCC
Description: SANGER: Inhibition of human LB1047-RCC cell growth in a cell viability assay.

MFE-280 = assay type: functional, cell-based, Homo sapiens; details: Homo sapiens, MFE-280
Description: SANGER: Inhibition of human MFE-280 cell growth in a cell viability assay.

MFM-223 = assay type: functional, cell-based, Homo sapiens; details: Homo sapiens, MFM-223
Description: SANGER: Inhibition of human MFM-223 cell growth in a cell viability assay.

MHH-ES-1 = assay type: functional, cell-based, Homo sapiens; details: Homo sapiens, MHH-ES-1
Description: SANGER: Inhibition of human MHH-ES-1 cell growth in a cell viability assay.

MKN-45 = assay type: functional, cell-based, Homo sapiens; details: Homo sapiens, MKN-45
MLMA = assay type: functional, cell-based, Homo sapiens; details: Homo sapiens, MLMA
Description: SANGER: Inhibition of human MLMA cell growth in a cell viability assay.

NB10 = assay type: functional, cell-based, Homo sapiens; details: Homo sapiens, NB10
Description: SANGER: Inhibition of human NB10 cell growth in a cell viability assay.

NCI-H1650 = assay type: functional, cell-based, Homo sapiens; details: Homo sapiens, NCI-H1650
Description: SANGER: Inhibition of human NCI-H1650 cell growth in a cell viability assay.

NCI-H1792 = assay type: functional, cell-based, Homo sapiens; details: Homo sapiens, NCI-H1792
Description: SANGER: Inhibition of human NCI-H1792 cell growth in a cell viability assay.

NCI-H2347 = assay type: functional, cell-based, Homo sapiens; details: Homo sapiens, NCI-H2347
Description: SANGER: Inhibition of human NCI-H2347 cell growth in a cell viability assay.

NCI-H526 = assay type: functional, cell-based; details: Homo sapiens
Description: SANGER: Inhibition of human NCI-H526 cell growth in a cell viability assay.

NH-12 = assay type: functional, cell-based, Homo sapiens; details: Homo sapiens, NH-12
Description: SANGER: Inhibition of human NH-12 cell growth in a cell viability assay.

OE19 = assay type: functional, cell-based, Homo sapiens; details: Homo sapiens, OE19
Description: SANGER: Inhibition of human OE19 cell growth in a cell viability assay.

OMC-1 = assay type: functional, cell-based, Homo sapiens; details: Homo sapiens, OMC-1
Description: SANGER: Inhibition of human OMC-1 cell growth in a cell viability assay.

OVCAR-3 = assay type: functional, cell-based, Homo sapiens; details: Homo sapiens, OVCAR-3
Description: SANGER: Inhibition of human OVCAR-3 cell growth in a cell viability assay.

RH-1 = assay type: functional, cell-based, Homo sapiens; details: Homo sapiens, RH-1
SK-MEL-30 = assay type: functional, cell-based; details: Homo sapiens
Description: SANGER: Inhibition of human SK-MEL-30 cell growth in a cell viability assay.

SK-PN-DW = assay type: functional, cell-based; details: Homo sapiens
Description: SANGER: Inhibition of human SK-PN-DW cell growth in a cell viability assay.

SW756 = assay type: functional, cell-based, Homo sapiens; details: Homo sapiens, SW756
Description: SANGER: Inhibition of human SW756 cell growth in a cell viability assay.

SW 954 = assay type: functional, cell-based, Homo sapiens; details: Homo sapiens, SW 954
Description: SANGER: Inhibition of human SW954 cell growth in a cell viability assay.

T-24 = assay type: functional, cell-based, Homo sapiens; details: Homo sapiens, T-24
Description: SANGER: Inhibition of human T-24 cell growth in a cell viability assay.

CWR22R = assay type: functional, cell-based, Homo sapiens; details: Homo sapiens, 22Rv1
Description: SANGER: Inhibition of human 22RV1 cell growth in a cell viability assay.

A204 = assay type: functional, cell-based, Homo sapiens; details: Homo sapiens, A204
Description: SANGER: Inhibition of human A204 cell growth in a cell viability assay.

ABC-1 = assay type: functional, cell-based, Homo sapiens; details: Homo sapiens, ABC-1
Description: SANGER: Inhibition of human ABC-1 cell growth in a cell viability assay.

ACN = assay type: functional, cell-based, Homo sapiens; details: Homo sapiens, ACN
Description: SANGER: Inhibition of human ACN cell growth in a cell viability assay.

BB49-HNC = assay type: functional, cell-based, Homo sapiens; details: Homo sapiens, BB49-HNC
Description: SANGER: Inhibition of human BB49-HNC cell growth in a cell viability assay.

BV-173 = assay type: functional, cell-based; details: Homo sapiens
Description: SANGER: Inhibition of human BV-173 cell growth in a cell viability assay.

TYK-nu = assay type: functional, cell-based, Homo sapiens; details: Homo sapiens, TYK-nu
Description: SANGER: Inhibition of human TYK-nu cell growth in a cell viability assay.

U-87 MG = assay type: functional, cell-based, U-87MG ATCC; details: Homo sapiens
Description: SANGER: Inhibition of human U-87-MG cell growth in a cell viability assay.

YAPC = assay type: functional, cell-based, Homo sapiens; details: Homo sapiens, YAPC
Description: SANGER: Inhibition of human YAPC cell growth in a cell viability assay.

CGTH-W-1 = assay type: functional, cell-based, Homo sapiens; details: Homo sapiens, CGTH-W-1
Description: SANGER: Inhibition of human CGTH-W-1 cell growth in a cell viability assay.

COLO-678 = assay type: functional, cell-based, Homo sapiens; details: Homo sapiens, COLO-678
Description: SANGER: Inhibition of human COLO-678 cell growth in a cell viability assay.

## CCOc1nc(NC(=O)Cc2cc(OC)ccc2OC)cc(N)c1C#N
COLO-792
  IC50: > 10 µM
COLO-829
  IC50: > 10 µM
DOHH-2
  IC50: > 10 µM
DSH1
  IC50: > 10 µM
ES7
  IC50: > 10 µM
EOL1
  IC50: > 10 µM
GI-1
  IC50: > 10 µM
HCC38
  IC50: > 10 µM
HCT-116
  IC50: > 10 µM
HGC-27
  IC50: > 10 µM
HN
  IC50: > 10 µM
HO-1-N-1
  IC50: > 10 µM
HuTu80
  IC50: > 10 µM
Huh-7
  IC50: > 10 µM
K5
  IC50: > 10 µM
KINGS-1
  IC50: > 10 µM
KM-H2
  IC50: > 10 µM
KU-19-19
  IC50: > 10 µM
KYSE-410
  IC50: > 10 µM
LB1047-RCC
  IC50: > 10 µM
MFE-280
  IC50: > 10 µM
MFM-223
  IC50: > 10 µM
MHH-ES-1
  IC50: > 10 µM
MKN-45
  IC50: > 10 µM
MLMA
  IC50: > 10 µM
NB10
  IC50: > 10 µM
NCI-H1650
  IC50: > 10 µM
NCI-H1792
  IC50: > 10 µM
NCI-H2347
  IC50: > 10 µM
NCI-H526
  IC50: > 10 µM
NH-12
  IC50: > 10 µM
OE19
  IC50: > 10 µM
OMC-1
  IC50: > 10 µM
OVCAR-3
  IC50: > 10 µM
RH-1
  IC50: > 10 µM
SK-MEL-30
  IC50: > 10 µM
SK-PN-DW
  IC50: > 10 µM
SW756
  IC50: > 10 µM
SW 954
  IC50: > 10 µM
T-24
  IC50: > 10 µM
CWR22R
  IC50: > 10 µM
A204
  IC50: > 10 µM
ABC-1
  IC50: > 10 µM
ACN
  IC50: > 10 µM
BB49-HNC
  IC50: > 10 µM
BV-173
  IC50: > 10 µM
TYK-nu
  IC50: > 10 µM
U-87 MG
  IC50: > 10 µM
YAPC
  IC50: > 10 µM
CGTH-W-1
  IC50: > 10 µM
COLO-678
  IC50: > 10 µM

## CN(C)C/C=C/C(=O)Nc1cc2c(Nc3ccc(F)c(Cl)c3)ncnc2cc1O[C@H]1CCOC1 [AFATINIB]
COLO-792
  IC50: > 0.5 µM
COLO-829
  IC50: > 0.5 µM
DOHH-2
  IC50: > 0.5 µM
DSH1
  IC50: 0.0331 µM
ES7
  IC50: > 0.5 µM
EOL1
  IC50: 0.269 µM
GI-1
  IC50: > 0.5 µM
HCC38
  IC50: > 0.5 µM
HCT-116
  IC50: > 0.5 µM
HGC-27
  IC50: > 0.5 µM
HN
  IC50: 0.131 µM
HO-1-N-1
  IC50: 0.279 µM
HuTu80
  IC50: > 0.5 µM
Huh-7
  IC50: > 0.5 µM
K5
  IC50: > 0.5 µM
KINGS-1
  IC50: > 0.5 µM
KM-H2
  IC50: > 0.5 µM
KU-19-19
  IC50: > 0.5 µM
KYSE-410
  IC50: > 0.5 µM
LB1047-RCC
  IC50: > 0.5 µM
MFE-280
  IC50: > 0.5 µM
MFM-223
  IC50: > 0.5 µM
MHH-ES-1
  IC50: > 0.5 µM
MKN-45
  IC50: > 0.5 µM
MLMA
  IC50: > 0.5 µM
NB10
  IC50: > 0.5 µM
NCI-H1650
  IC50: > 0.5 µM
NCI-H1792
  IC50: > 0.5 µM
NCI-H2347
  IC50: > 0.5 µM
NCI-H526
  IC50: 0.0782 µM
NH-12
  IC50: > 0.5 µM
OE19
  IC50: > 0.5 µM
OMC-1
  IC50: > 0.5 µM
OVCAR-3
  IC50: > 0.5 µM
RH-1
  IC50: > 0.5 µM
SK-MEL-30
  IC50: > 0.5 µM
SK-PN-DW
  IC50: > 0.5 µM
SW756
  IC50: > 0.5 µM
SW 954
  IC50: > 0.5 µM
T-24
  IC50: > 0.5 µM
CWR22R
  IC50: > 0.5 µM
A204
  IC50: > 0.5 µM
ABC-1
  IC50: > 0.5 µM
ACN
  IC50: > 0.5 µM
BB49-HNC
  IC50: > 0.5 µM
BV-173
  IC50: 0.176 µM
TYK-nu
  IC50: > 0.5 µM
U-87 MG
  IC50: > 0.5 µM
YAPC
  IC50: > 0.5 µM
CGTH-W-1
  IC50: > 0.5 µM
COLO-678
  IC50: > 0.5 µM

## O=C(NOCC1CC1)c1ccc(F)c(F)c1Nc1ccc(I)cc1Cl [CI-1040]
COLO-792
  IC50: 2.84 µM
COLO-829
  IC50: 1.62 µM
DOHH-2
  IC50: 8.2 µM
DSH1
  IC50: > 10 µM
ES7
  IC50: > 10 µM
EOL1
  IC50: 0.0415 µM
GI-1
  IC50: > 10 µM
HCC38
  IC50: > 10 µM
HCT-116
  IC50: 6.81 µM
HGC-27
  IC50: > 10 µM
HN
  IC50: 2.16 µM
HO-1-N-1
  IC50: 1.52 µM
HuTu80
  IC50: > 10 µM
Huh-7
  IC50: 5.27 µM
K5
  IC50: 0.431 µM
KINGS-1
  IC50: > 10 µM
KM-H2
  IC50: > 10 µM
KU-19-19
  IC50: 3.17 µM
KYSE-410
  IC50: > 10 µM
LB1047-RCC
  IC50: 4.74 µM
MFE-280
  IC50: 6.86 µM
MFM-223
  IC50: > 10 µM
MHH-ES-1
  IC50: > 10 µM
MKN-45
  IC50: 9.45 µM
MLMA
  IC50: > 10 µM
NB10
  IC50: 5.89 µM
NCI-H1650
  IC50: > 10 µM
NCI-H1792
  IC50: 9.45 µM
NCI-H2347
  IC50: > 10 µM
NCI-H526
  IC50: > 10 µM
NH-12
  IC50: 4.72 µM
OE19
  IC50: > 10 µM
OVCAR-3
  IC50: > 10 µM
RH-1
  IC50: > 10 µM
SK-MEL-30
  IC50: 7.25 µM
SK-PN-DW
  IC50: > 10 µM
SW756
  IC50: > 10 µM
SW 954
  IC50: 8.97 µM
T-24
  IC50: 2.91 µM
CWR22R
  IC50: > 10 µM
A204
  IC50: > 10 µM
ABC-1
  IC50: > 10 µM
ACN
  IC50: 0.267 µM
BB49-HNC
  IC50: > 10 µM
BV-173
  IC50: 1.44 µM
TYK-nu
  IC50: 1.03 µM
U-87 MG
  IC50: > 10 µM
YAPC
  IC50: > 10 µM
CGTH-W-1
  IC50: 3.86 µM
COLO-678
  IC50: 7.71 µM
